The values below come from publication PMC10762068, “Selective blockade of Cav1.2 (α1C) versus Cav1.3 (α1D) L-type calcium channels by the black mamba toxin calciseptine” (Nature Communications, 2024).

Entries after “also recorded” stand apart in the source; their conditions may differ. Positions of bridges follow the written chain, without caps; N, C: chain ends. No end group written: not given here.

For series [1], the system named is human ether-a-go-go-related gene (hERG). As to the kind of experiment: hERG current in Xenopus oocytes. The series is classed as cell-based. Particulars: Cas 1 µM, n=5, Xenopus oocytes, 19-20 °C. The procedure:
Xenopus laevis specimen were purchased from Tefor Paris Saclay. Animal handling and experiments fully conformed to French regulations and were approved by local governmental veterinary services (authorization number E06-152-5 delivered by the Ministère de l’Agriculture, Direction des Services Vétérinaires). Animals were anesthetized by exposure for 20 min to a 0.1% solution of 3-aminobenzoic acid ethyl ester (MS-222) (Sigma) buffered at pH 7.4. Oocytes were surgically removed and dissected away in a saline solution (ND96) containing (in mM) 96 NaCl, 2 KCl, 1.8 CaCl2, 2 MgCl2, and 5 HEPES at pH 7.4 with NaOH. Stage V and VI oocytes were treated for 3 h with collagenase (1 mg/ml, type Ia, Sigma) in the presence of trypsin inhibitor (Sigma) in ND96 to discard follicular cells. pSI-HERG plasmid solutions were injected in nucleus (100 ng/µl, 23 nl/oocyte) using a pressure microinjector. The oocytes were kept at 19 °C in the ND96 saline solution supplemented with penicillin (10 mg/L) and streptomycin (20 mg/L). Oocytes were studied within 2 days following injection of plasmid. In a 0.3-ml perfusion chamber, a single oocyte was impaled with two standard glass microelectrodes (1–2.5 MΩ resistance) filled with 3 M KCl and maintained under voltage- clamp using a Dagan TEV 200 amplifier. […]
A general note: hERG is a cardiac potassium channel; its block is linked to QT prolongation.

Series [2] has as its system DHP-sensitive Ca2+ channel in smooth muscle cells of the guinea-pig portal vein. Particulars: cell-attached, 90 mM Ba2+ in the pipette; ref Teramoto et al, Pflugers Arch 1996; cited from earlier work. The source says: This po int deserves further specific investigations and addit ional structural studies are required to elucidate the interaction and binding properties between Cas and Cav1.2 channel.

Series [3] concerns total ICaL (ICav1.2+ICav1.3) in SAN myocytes from wild-type mice. As to the kind of experiment: ICaL, patch clamp, SAN myocytes from wild-type mice. The format is cell-based, mouse. The following applies: for L-type Ca2+ current density: Cas 1 µM alone or + Nife 3 µM, n=8. The procedure: Hearts from Wild-Type and Cav1.3^−/− mice were removed under general anesthesia consisting of 0.01 mg/g xylazine (2% Rompun; Bayer AG) and 0.1 mg/g ketamine (Imalgène;Merial) and immersed in a pre-warmed (36 °C) Tyrode solution containing (mM): 140 NaCl, 5.4 KCl, 1 MgCl2, 1.8 CaCl2, 5.5 D-glucose, and 5 Hepes (adjusted to pH 7.4 with NaOH). […] SAN tissue was excised and transferred into a low-Ca^2+ solution containing (mM): 140 NaCl, 5.4 KCl, 0.5 MgCl2, 0.2 CaCl2, 1.2 KH2PO4, 50 taurine, 5.5 D-glucose, 1 mg/mL BSA, and 5 Hepes–NaOH (adjusted to pH 6.9 with NaOH) for 5 min. Then, enzymatic digestion was carried out for 20-25 min at 36 °C in the low-Ca^2+ solution containing LiberaseTH Research Grade (0.15 mg/mL; Roche, Mannheim, Germany) and elastase (0.5 mg/mL; Worthington, Lakewood, NJ, USA). Digestion was stopped by washing the SAN in a “Kraftbrühe” (KB) medium containing (mM) 100 K-glutamate, 10 K-aspartate, 25 KCl, 10 KH2PO4, 2 MgSO4, 20 taurine, 5 creatine, 0.5 EGTA, 20 D-glucose, 5 Hepes, and 1 mg/mL BSA (adjusted to pH 7.2 with KOH). Single SAN cells were then dissociated from the SAN tissue by manual agitation using a flame-forged Pasteur’s pipette. To recover the automaticity of the SAN cells, Ca^2+ was gradually reintroduced in the cell’s storage solution to a final concentration of 1.8 mM. SAN cells were then left to rest for 1 h before recordings.
For patch-clamp recordings of SAN myocytes, cells were harvested in custom-made chambers with glass bottoms for cell attachment. Cells were then super-fused with Tyrode’s solution warmed at 36 °C before recording. Action potentials and ionic currents were recorded using an Axon multi-clamp patch-clamp 700B amplifier. Voltage-gated L-type Ca^2+ currents (ICaL) were recorded using standard whole cell patch-clamp configuration. For recording ICaL, we used an extracellular recording solution contained (mM): 135 tetraethylammonium chloride (TEA-Cl), 10 4-aminopyridine (4-AP), 1 MgCl2, 0.03 tetrodotoxin (TTX), 1 g/L Glucose, 2 CaCl2, 10 Hepes, (adjusted to pH = 7.2 with TEAOH). […] Pacemaker activity was recorded by the perforated patch-clamp technique using escin (40 µg/ml). For recording cell automaticity glass pipettes were filled with the intracellular solution contained (mM): 80 K-Aspartate, 50 KCl, 1 MgCl2, 5 HEPES, 2 CaCl2, 5 EGTA, 3 ATP-Na+ salt; pH was adjusted to 7.2 with KOH. Escin was dissolved in sterile H2O and added to the intracellular solution right before each experiment.
In all experiments of cellular electrophysiology, we employed synthetized analog of Cas, commercially available at Latoxan (ID: L8109). The native peptide was purified from the venom of Dendroaspis polylepis purchased from Latoxan, as previoulsly described. The pure peptide was obtained after gel filtration, cation exchange and C18 reversed phase chromatography. Its measured molecular mass (7036.26 Da average) was in accordance with the mass calculated from sequence data (7036.22 Da).
On the technique in general: Patch clamp records ionic current or voltage across a cell membrane.

Series [4] concerns DHP binding site, brain synaptosomes. The following applies: at a rather high concentration; cited from earlier work. The source says:
DHPs are prototypical organic blockers of L-type calcium channels widely used in therapeutical applications.

Consider “RICYIHKASLPRATKTCVENTCYKMFIRTQREYISERGCGCPTAMWPYQTECCKGDRCNK (disulfide 3-22, 17-39, 41-52, 53-58 (inferred)) [Cas, calciseptine]”, for which, in series [1], the “effect on hERG current” value is reported as “did not record any difference; also recorded: had no effect”. The “block of 25-pS and 12-pS channel conductances” value in series [2] is given as “Both conductances were blocked”. The “L-type Ca2+ current density” value in series [3] (0 mV, Ctrl -8.45± 1.02) is listed as -3.87± 0.71 pA/pF; in series [3] (+20 mV, Ctrl -5.09± 0.81) it was -1.53± 0.56 pA/pF; in series [3] (-10 mV, Ctrl -8.20± 1.10) it was -4.24± 0.77 pA/pF; in series [3] (-20 mV, Ctrl -5.61± 0.91), -3.37± 0.54 pA/pF; in series [3] (-25 mV, Ctrl -3.96± 0.71), -2.46± 0.48 pA/pF; in series [3] (-30 mV, Ctrl -2.44± 0.47), -1.49± 0.38 pA/pF. For the same sequence, the “L-type Ca2+ current density” value in series [3] (-35 mV, Ctrl -1.18± 0.29) is reported as -0.90± 0.24 pA/pF. Moreover, the “reduction of total ICaL” value in series [3] (Wild-Type SAN myocytes, voltage clamp) is on record as “around 45%”. Further, in series [4], the “inhibition of DHP binding” value is “could inhibit binding of DHPs”.
